Measurements taken from patent US12578350B2, “System and method for coagulation and platelet function related data collection and analysis” (FloBio LLC, priority 2024, dated 2026).

Tested on: fibrin accumulation
Experiment: Microfluidic whole blood flow assay over collagen/tissue factor reaction zone, fibrin signal, drug spiked in vitro
Assay type: cell-based, human
Details: blood sample treated with different doses, in relation to HBS control; 37° C. and 21° C.; FIGS. 17C-17D
From the text: The drug in question can be mixed with a small bolus of patient blood outside the device (in vitro), and the drug spiked blood then analyzed on the system. […] Fresh whole blood (used within minutes of venous draw), AF594 fibrinogen (fibrinogen from human plasma, Alexa FluorTM 594 conjugate) and platelet MCA2588A488 (mouse anti-human CD61, Alexa FluorTM 488 conjugate) can be added to the device 100 and the direct fluorescence signals can be analyzed. […] The result is the production of direct fluorescent signals in green (platelets) and red (fibrin) where the measured fluorescent intensity (FI) directly correlates with the accumulation of platelets and fibrin. The fluorescent signal intensity can be directly measured at each clot site over time to produce clot response curves for both fibrin and platelets. Fluorescence signal (intensity) can be extracted for each clot and plotted for each assay condition. Two signals are generated in the test as fluorescence intensity (FI) for fibrin and platelets accumulating in the region of interest on the device. […] The optimal time at which to select data for analyses is generally determined to be the time of the maximum rate of stable signal development, which typically corresponds to the half-max or T50 time point of the assay.

## O=C(NC[C@H]1CN(c2ccc(N3CCOCC3=O)cc2)C(=O)O1)c1ccc(Cl)s1 [Rivaroxaban]
  fibrin signal with increasing dose: decreases
